These results are taken from ChEMBL document CHEMBL1121672, “Folate antagonists. 19. Synthesis and antimalarial effects of 6-(arylthio)-2,4-pteridinediamines” (1981).

Assay type in all cases: functional
For test [1], the system named is Staphylococcus aureus. The test is described as follows: Compound tested in vitro for antibacterial activity against Staphylococcus aureus (S18713).
The subject of the next test is Enterococcus faecalis. The test is described as follows: Compound tested in vitro for antibacterial activity against Streptococcus faecalis(MGH-2).
Test [2] relates to Staphylococcus aureus. The test is described as follows: Compound tested in vitro for antibacterial activity against Staphylococcus aureus(UC-76).

Converted amounts (≈) assume the structure as drawn.

Usually MIC stands for the lowest concentration found to suppress growth. Read a low MIC as a more susceptible organism. For `Nc1nc(N)c2nc(Sc3cccc4ccccc34)cnc2n1`, the figures for the minimum inhibitory concentration (MIC) in the test with Staphylococcus aureus [1], against Enterococcus faecalis and with Staphylococcus aureus [2] were 1.5 µg/mL (≈ 4.68 µM), below 0.25 µg/mL and below 0.25 µg/mL, respectively.
As to `Nc1nc(N)c2nc(Sc3cc(Cl)c(Cl)cc3Cl)cnc2n1`, the MIC is above 25 µg/mL in the test with Staphylococcus aureus [1], 5 µg/mL (≈ 13.4 µM) in the test on Enterococcus faecalis and above 25 µg/mL against Staphylococcus aureus [2].
Consider `Nc1nc(N)c2nc(Sc3cccc(C(F)(F)F)c3)cnc2n1`, for which the MIC in the test with Staphylococcus aureus [1], in the test with Enterococcus faecalis and against Staphylococcus aureus [2] was below 0.25 µg/mL in each case.
On to `Nc1nc(N)c2nc(Sc3ccc(Cl)c(Cl)c3)cnc2n1`, for which the MIC against Staphylococcus aureus [1] was above 25 µg/mL; in the test with Enterococcus faecalis, 2 µg/mL (≈ 5.9 µM); in the test on Staphylococcus aureus [2] it was above 25 µg/mL.
For the compound `Nc1nc(N)c2nc(Sc3ccc4ccccc4c3)cnc2n1`, the MIC against Staphylococcus aureus [1] is above 25 µg/mL; against Enterococcus faecalis, 1.5 µg/mL (≈ 4.68 µM); against Staphylococcus aureus [2], above 25 µg/mL.
Turning to `COc1ccc(Sc2cnc3nc(N)nc(N)c3n2)cc1`, the MIC is 2 µg/mL (≈ 6.66 µM) in the test with Staphylococcus aureus [1], below 0.25 µg/mL against Enterococcus faecalis and 2 µg/mL (≈ 6.66 µM) in the test with Staphylococcus aureus [2].
With `CN(C)/C=N\c1nc(/N=C/N(C)C)nc2ncc(Sc3ccc(Cl)c(Cl)c3)nc12`, the figures for the MIC against Staphylococcus aureus [1], against Enterococcus faecalis and in the test on Staphylococcus aureus [2] were above 25 µg/mL, below 0.25 µg/mL and above 25 µg/mL, respectively.
